According to PubChem BioAssay AID1919009 (Molecular Pharmacology Branch, DTP, NCI, 2023):

System: K24384-001-R-PDC complex spheroid growth
Test: Anticancer human tumor K24384-001-R-PDC patient-derived pancreatic adenocarcinoma cell line growth inhibition [AhR]
Conditions: for IC50: curve of first compound; for viability, T/C: stronger effect = lower value
How it was run: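 Complex tumor spheroids co-cultured with HUVEC and human MSC stroma; AhR antagonists tested in combination with standard-of-care and investigational agents. Top concentration at or near clinical Cmax (else 10 microM), half-log dilutions; growth expressed as percent test/control.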

[1] = second compound 0.1 µM, first compound 0.0316 µM
[2] = second compound 0.1 µM, first compound 0.1 µM
[3] = second compound 0.316 µM, first compound 0.0316 µM
[4] = second compound 0.316 µM, first compound 0.1 µM
[5] = second compound 1 µM, first compound 0.0316 µM
[6] = second compound 1 µM, first compound 0.1 µM
[7] = second compound 3.16 µM, first compound 0.0316 µM
[8] = second compound 3.16 µM, first compound 0.1 µM
[9] = second compound 10 µM, first compound 0.0316 µM
[10] = second compound 10 µM, first compound 0.1 µM
[11] = second compound 0.1 µM, first compound 0.00949 µM
[12] = second compound 0.1 µM, first compound 0.03 µM
[13] = second compound 0.1 µM, first compound 0.0949 µM
[14] = second compound 0.1 µM, first compound 0.3 µM
[15] = second compound 0.316 µM, first compound 0.00949 µM
[16] = second compound 0.316 µM, first compound 0.03 µM
[17] = second compound 0.316 µM, first compound 0.0949 µM
[18] = second compound 0.316 µM, first compound 0.3 µM
[19] = second compound 1 µM, first compound 0.00949 µM
[20] = second compound 1 µM, first compound 0.03 µM
[21] = second compound 1 µM, first compound 0.0949 µM
[22] = second compound 1 µM, first compound 0.3 µM
[23] = second compound 3.16 µM, first compound 0.00949 µM
[24] = second compound 3.16 µM, first compound 0.03 µM
[25] = second compound 3.16 µM, first compound 0.0949 µM
[26] = second compound 3.16 µM, first compound 0.3 µM
[27] = second compound 10 µM, first compound 0.00949 µM
[28] = second compound 10 µM, first compound 0.03 µM
[29] = second compound 10 µM, first compound 0.0949 µM
[30] = second compound 10 µM, first compound 0.3 µM
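Wherever viability, T/C is given: percent of DMSO vehicle-treated spheroid viability set as 100%.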

CC1(C)CCC(CN2CCN(c3ccc(C(=O)NS(=O)(=O)c4ccc(NCC5CCOCC5)c([N+](=O)[O-])c4)c(Oc4cnc5[nH]ccc5c4)c3)CC2)=C(c2ccc(Cl)cc2)C1 + CC(CO)NC(=O)c1cc(-c2ccc(Cl)cc2)nn(-c2cnn(C)c2)c1=O
IC50 (second compound 0.1 µM): > 10 µM | IC50 (second compound 0.316 µM): > 10 µM | IC50 (second compound 1 µM): > 10 µM | IC50 (second compound 3.16 µM): 9 µM | IC50 (second compound 10 µM): > 10 µM | viability, T/C [1]: 91.4% | viability, T/C [2]: 115% | viability, T/C (second compound 0.1 µM, first compound 0.316 µM): 94.4% | viability, T/C (second compound 0.1 µM, first compound 1 µM): 88.3% | viability, T/C (second compound 0.1 µM, first compound 3.16 µM): 87.9% | viability, T/C (second compound 0.1 µM, first compound 10 µM): 50.5% | viability, T/C [3]: 117% | viability, T/C [4]: 124% | viability, T/C (second compound 0.316 µM, first compound 0.316 µM): 123% | viability, T/C (second compound 0.316 µM, first compound 1 µM): 101% | viability, T/C (second compound 0.316 µM, first compound 3.16 µM): 106% | viability, T/C (second compound 0.316 µM, first compound 10 µM): 49.9% | viability, T/C [5]: 123% | viability, T/C [6]: 139% | viability, T/C (second compound 1 µM, first compound 0.316 µM): 123% | viability, T/C (second compound 1 µM, first compound 1 µM): 115% | viability, T/C (second compound 1 µM, first compound 3.16 µM): 110% | viability, T/C (second compound 1 µM, first compound 10 µM): 51.7% | viability, T/C [7]: 97.3% | viability, T/C [8]: 112% | viability, T/C (second compound 3.16 µM, first compound 0.316 µM): 122% | viability, T/C (second compound 3.16 µM, first compound 1 µM): 110% | viability, T/C (second compound 3.16 µM, first compound 3.16 µM): 77.9% | viability, T/C (second compound 3.16 µM, first compound 10 µM): 47.2% | viability, T/C [9]: 101% | viability, T/C [10]: 114% | viability, T/C (second compound 10 µM, first compound 0.316 µM): 113% | viability, T/C (second compound 10 µM, first compound 1 µM): 110% | viability, T/C (second compound 10 µM, first compound 3.16 µM): 90.2% | viability, T/C (second compound 10 µM, first compound 10 µM): 53%

CCN(c1cc(-c2ccc(CN3CCOCC3)cc2)cc(C(=O)NCc2c(C)cc(C)[nH]c2=O)c1C)C1CCOCC1 + CC(CO)NC(=O)c1cc(-c2ccc(Cl)cc2)nn(-c2cnn(C)c2)c1=O
IC50 (second compound 0.1 µM): > 3 µM | IC50 (second compound 0.316 µM): > 3 µM | IC50 (second compound 1 µM): > 3 µM | IC50 (second compound 3.16 µM): > 3 µM | IC50 (second compound 10 µM): > 3 µM | viability, T/C [11]: 119% | viability, T/C [12]: 125% | viability, T/C [13]: 122% | viability, T/C [14]: 107% | viability, T/C (second compound 0.1 µM, first compound 0.949 µM): 95.4% | viability, T/C (second compound 0.1 µM, first compound 3 µM): 91.8% | viability, T/C [15]: 117% | viability, T/C [16]: 135% | viability, T/C [17]: 125% | viability, T/C [18]: 120% | viability, T/C (second compound 0.316 µM, first compound 0.949 µM): 98.2% | viability, T/C (second compound 0.316 µM, first compound 3 µM): 98.9% | viability, T/C [19]: 107% | viability, T/C [20]: 139% | viability, T/C [21]: 154% | viability, T/C [22]: 144% | viability, T/C (second compound 1 µM, first compound 0.949 µM): 102% | viability, T/C (second compound 1 µM, first compound 3 µM): 90.8% | viability, T/C [23]: 122% | viability, T/C [24]: 123% | viability, T/C [25]: 113% | viability, T/C [26]: 119% | viability, T/C (second compound 3.16 µM, first compound 0.949 µM): 113% | viability, T/C (second compound 3.16 µM, first compound 3 µM): 119% | viability, T/C [27]: 117% | viability, T/C [28]: 123% | viability, T/C [29]: 118% | viability, T/C [30]: 107% | viability, T/C (second compound 10 µM, first compound 0.949 µM): 99.4% | viability, T/C (second compound 10 µM, first compound 3 µM): 102%

Cn1ncnc1C1c2n[nH]c(=O)c3cc(F)cc(c23)NC1c1ccc(F)cc1 (stereo not given) + CC(CO)NC(=O)c1cc(-c2ccc(Cl)cc2)nn(-c2cnn(C)c2)c1=O
IC50 (second compound 0.1 µM): > 0.1 µM | IC50 (second compound 0.316 µM): > 0.1 µM | IC50 (second compound 1 µM): > 0.1 µM | IC50 (second compound 3.16 µM): > 0.1 µM | IC50 (second compound 10 µM): > 0.1 µM | viability, T/C (second compound 0.1 µM, first compound 0.000316 µM): 101% | viability, T/C (second compound 0.1 µM, first compound 0.001 µM): 99.9% | viability, T/C (second compound 0.1 µM, first compound 0.00316 µM): 94% | viability, T/C (second compound 0.1 µM, first compound 0.01 µM): 79.8% | viability, T/C [1]: 82% | viability, T/C [2]: 69.5% | viability, T/C (second compound 0.316 µM, first compound 0.000316 µM): 105% | viability, T/C (second compound 0.316 µM, first compound 0.001 µM): 108% | viability, T/C (second compound 0.316 µM, first compound 0.00316 µM): 90.4% | viability, T/C (second compound 0.316 µM, first compound 0.01 µM): 80.8% | viability, T/C [3]: 74.7% | viability, T/C [4]: 74.8% | viability, T/C (second compound 1 µM, first compound 0.000316 µM): 95% | viability, T/C (second compound 1 µM, first compound 0.001 µM): 105% | viability, T/C (second compound 1 µM, first compound 0.00316 µM): 90.3% | viability, T/C (second compound 1 µM, first compound 0.01 µM): 65.8% | viability, T/C [5]: 76.6% | viability, T/C [6]: 72.4% | viability, T/C (second compound 3.16 µM, first compound 0.000316 µM): 78.7% | viability, T/C (second compound 3.16 µM, first compound 0.001 µM): 74.4% | viability, T/C (second compound 3.16 µM, first compound 0.00316 µM): 81.2% | viability, T/C (second compound 3.16 µM, first compound 0.01 µM): 69.9% | viability, T/C [7]: 61.8% | viability, T/C [8]: 62.8% | viability, T/C (second compound 10 µM, first compound 0.000316 µM): 66.3% | viability, T/C (second compound 10 µM, first compound 0.001 µM): 67.8% | viability, T/C (second compound 10 µM, first compound 0.00316 µM): 67.8% | viability, T/C (second compound 10 µM, first compound 0.01 µM): 66.1% | viability, T/C [9]: 63.3% | viability, T/C [10]: 54.1%

Nc1ncn(C2CC(O)C(CO)S2)c(=O)n1 (stereo not given) + CC(CO)NC(=O)c1cc(-c2ccc(Cl)cc2)nn(-c2cnn(C)c2)c1=O
IC50 (second compound 0.1 µM): > 0.3 µM | IC50 (second compound 0.316 µM): > 0.3 µM | IC50 (second compound 1 µM): > 0.3 µM | IC50 (second compound 3.16 µM): > 0.3 µM | IC50 (second compound 10 µM): > 0.3 µM | viability, T/C (second compound 0.1 µM, first compound 0.000949 µM): 115% | viability, T/C (second compound 0.1 µM, first compound 0.003 µM): 126% | viability, T/C [11]: 114% | viability, T/C [12]: 74.6% | viability, T/C [13]: 84.4% | viability, T/C [14]: 72.4% | viability, T/C (second compound 0.316 µM, first compound 0.000949 µM): 118% | viability, T/C (second compound 0.316 µM, first compound 0.003 µM): 130% | viability, T/C [15]: 134% | viability, T/C [16]: 88.3% | viability, T/C [17]: 98.2% | viability, T/C [18]: 69.8% | viability, T/C (second compound 1 µM, first compound 0.000949 µM): 137% | viability, T/C (second compound 1 µM, first compound 0.003 µM): 127% | viability, T/C [19]: 148% | viability, T/C [20]: 125% | viability, T/C [21]: 92.2% | viability, T/C [22]: 65.5% | viability, T/C (second compound 3.16 µM, first compound 0.000949 µM): 87.3% | viability, T/C (second compound 3.16 µM, first compound 0.003 µM): 124% | viability, T/C [23]: 119% | viability, T/C [24]: 118% | viability, T/C [25]: 92.6% | viability, T/C [26]: 76.2% | viability, T/C (second compound 10 µM, first compound 0.000949 µM): 105% | viability, T/C (second compound 10 µM, first compound 0.003 µM): 106% | viability, T/C [27]: 136% | viability, T/C [28]: 107% | viability, T/C [29]: 105% | viability, T/C [30]: 83.4%
